Assay results taken from ChEMBL document CHEMBL2074390, “Vectorial transport of bile salts across MDCK cells expressing both rat Na+-taurocholate cotransporting polypeptide and rat bile salt export pump” (Am J Physiol Gastrointest Liver Physiol, 2004).

System: MDCK
Description: TP_TRANSPORTER: transepithelial transport (basal to apical) in Ntcp/Bsep double transfected MDCK cell

C[C@H](CCC(=O)NCCS(=O)(=O)O)[C@H]1CC[C@H]2[C@@H]3[C@H](O)C[C@@H]4C[C@H](O)CC[C@]4(C)[C@H]3C[C@H](O)[C@]12C
Km: 22.2 µM
